One assay concerns C. albicans. Nature of the assay: MIC determination, summary over C. albicans strains. Type of assay: cell-based. The note with it: Candida albicans; text summary over all C. albicans strains; read-out: activity toward C. albicans (MIC). How it is done:
(§1) Determination of MICs by AFST-EUCAST Standard Methodology
(§2) Assay medium. The assay medium was RPMI […] without NaHCO3 and with L-glutamine (Sigma Aldrich, Italy), buffered at pH 7.0 with 0.165 M morpholinepropanesulphonic acid (Sigma Aldrich, Italy) and supplemented with 2% (w/v) glucose. The medium, prepared as double-strength solution, was sterilized by filtration and diluted 1:2 (v/v) with the fungal inoculum prepared in sterile distilled water.
(§3) The yeast isolates were grown on Sabouraud dextrose agar (Oxoid, Madrid, Spain) for 48 h at 37° C. before testing. Suspensions were prepared by combining five distinct colonies of each culture of >1 mm diameter. […]
(§4) Sterile plastic micro titration plates containing flat-bottomed wells were used. […] The minimal inhibitory concentrations (MICs) were determined at 24 h both visually and spectrophotometrically.
(§5) By visual endpoint determination, MICs were determined according to a S-1-R scale, with S (susceptible) indicating an optical clear culture, I (intermediate susceptibility) indicating a slightly hazy culture, and R (resistant) indicating no reduction in turbidity. […]
(§6) Microtitration plates were stirred using a microtitration plate shaker before reading to ensure uniform turbidity. MICs were obtained by measuring the absorbance at 450 nm with a microtitration plate reader. The value of the blank was subtracted from reading of the rest of the wells. […]

Another assay relates to C. krusei strains. In words: MIC determination, summary over C. krusei strains. Type of assay: cell-based. The note with it: Pichia kudriavzevii; text summary over C. krusei strains; read-out: activity toward C. krusei strains (MIC). How it is done:
as §1, §2, §3, §4, §5, §6

The next assay relates to C. albicans 15T. Nature of the assay: MIC determination by AFST-EUCAST standard methodology. Type of assay: cell-based, Candida albicans. The note with it: Candida albicans, 24 h, visually and spectrophotometrically, read-out: Antifungal activity, expressed as MIC50. How it is done:
as §1, §2
(§7) The yeast isolates were grown on Sabouraud dextrose agar (Oxoid, Madrid, Spain) for 48 h at 37° C. before testing. Suspensions were prepared by combining five distinct colonies of each culture of >1 mm diameter. A spectrophotometric procedure for inoculum preparation was used. The final inoculum suspension, prepared in sterile distilled water, contained between 0.5·10^5 and 2.5·10^5 cfu/mL.
(§8) Stock solutions of test compounds were prepared in 100% dimethyl sulfoxide. Stock solutions were prepared as 100× concentration relative to the highest concentration in the antifungal activity test, and frozen at −70° C. until used.
(§9) Sterile plastic micro titration plates containing flat-bottomed wells were used. The plates contained serial dilution of the antifungal agents with a volume of assay medium of 100 μL/well. Two drug-free medium wells were used as sterility and growth controls. The trays were inoculated with 100 μL/well of the final inoculum, with the exception of sterility control wells. The range of concentrations tested for each drug was 1.25-80 μM. The microtitration plates were incubated at 37° C. for 24 h. The minimal inhibitory concentrations (MICs) were determined at 24 h both visually and spectrophotometrically.
(§10) By visual endpoint determination, MICs were determined according to a S-1-R scale, with S (susceptible) indicating an optical clear culture, I (intermediate susceptibility) indicating a slightly hazy culture, and R (resistant) indicating no reduction in turbidity. The MIC50 was defined as the lowest concentration of a drug which correspond to a S culture.
(§11) Microtitration plates were stirred using a microtitration plate shaker before reading to ensure uniform turbidity. MICs were obtained by measuring the absorbance at 450 nm with a microtitration plate reader. The value of the blank was subtracted from reading of the rest of the wells. Two endpoints were defined for each antifungal agent tested, with MIC80 indicating the lowest drug concentration resulting in a reduction of growth of 80% or more (determined spectrophotometrically) compared with the growth of the control, and MIC50 indicating the lowest drug concentration resulting in a reduction in growth of 50% (determined spectrophotometrically) compared with the growth of the control. The MIC50 was also defined as the spectrophotometric endpoint.

In another assay the test system is C. albicans 4T. The description is as above. Type of assay: cell-based, Candida albicans. Particulars: Candida albicans, 24 h, visually and spectrophotometrically, read-out: Antifungal activity, expressed as MIC50. How it is done: as §1, §2, §7, §8, §9, §10, §11
The subject of the next assay is C. albicans 53T. The assay is described as above. Type of assay: cell-based, Candida albicans. Particulars: Candida albicans, 24 h, visually and spectrophotometrically, read-out: Antifungal activity, expressed as MIC50. How it is done:
as §1, §2, §7, §8, §9, §10, §11

In a further assay the test system is C. albicans ATCC 60193. The assay is described as above. Type of assay: cell-based, Candida albicans. Particulars: Candida albicans, ATCC60193, 24 h, visually and spectrophotometrically, read-out: Antifungal activity, expressed as MIC50. How it is done:
as §1, §2, §7, §8, §9, §10, §11

The test system of another assay is C. tropicalis 86E. Described as above. Type of assay: cell-based. Particulars: Candida tropicalis, 24 h, visually and spectrophotometrically, read-out: Antifungal activity, expressed as MIC50. As for the experimental part:
as §1, §2, §7, §8, §9, §10, §11

In another assay the test system is C. glabrata 70E. The description is as above. The note with it: Nakaseomyces glabratus; for MIC50: C. glabrata 70E, 24 h, visually and spectrophotometrically, read-out: Antifungal activity, expressed as MIC50. Type of assay: cell-based. How it is done: as §1, §2, §7, §8, §9, §10, §11
Another assay has as its system C. krusei ATCC 14243. Described as above. The assay is classed as cell-based. Particulars: Pichia kudriavzevii, ATCC14243, 24 h, visually and spectrophotometrically, read-out: Antifungal activity, expressed as MIC50. How it is done: as §1, §2, §7, §8, §9, §10, §11
A further assay has as its system C. krusei 193T. Described as above. The assay is classed as cell-based. Particulars: Pichia kudriavzevii, 24 h, visually and spectrophotometrically, read-out: Antifungal activity, expressed as MIC50. As for the experimental part:
as §1, §2, §7, §8, §9, §10, §11

A further assay concerns C. parapsilosis 64E. Described as above. The assay is classed as cell-based. Particulars: Lodderomyces parapsilosis, 24 h, visually and spectrophotometrically, read-out: Antifungal activity, expressed as MIC50. As for the experimental part: as §1, §2, §7, §8, §9, §10, §11
Another assay concerns C. parapsilosis 81E. Described as above. The assay is classed as cell-based. Particulars: Lodderomyces parapsilosis, 24 h, visually and spectrophotometrically, read-out: Antifungal activity, expressed as MIC50. How it is done:
as §1, §2, §7, §8, §9, §10, §11

Assay [1] has as its system C. parapsilosis ATCC 34136. The assay is described as above. Particulars: Lodderomyces parapsilosis, ATCC34136, 24 h, visually and spectrophotometrically, read-out: Antifungal activity, expressed as MIC50. Type of assay: cell-based. How it is done: as §1, §2, §7, §8, §9, §10, §11
For the next assay, the system named is C. parapsilosis. In words: MIC determination, summary over C. parapsilosis. Type of assay: cell-based. Particulars: Lodderomyces parapsilosis, stated jointly with C. glabrata; read-out: activity toward C. parapsilosis (MIC). How it is done:
as §1, §2, §3, §4, §5, §6

The structures appear in SMILES notation. Counter-ions that a name gives are not always drawn. Where only a bound is given, the exact number is not on record here.

Turning to `N=C(NCCCCCCCCN1CCCCCCCCNC(=N)NC1=O)NCC1CC1` [Compound 15c, 1-[cyclopropylmethyl]-3-[8-(4-imino-2-oxo-1,3,5-triazacyclotridec-1-yl)octyl]guanidine tri trifluoroacetate], the MIC (commonly the smallest concentration in the dilution series that meets the test's criterion for growth inhibition) in the assay with C. albicans was 2.5 µM; with C. krusei strains, 10 µM. Moreover, the MIC50 (usually an inhibitory concentration at the 50% level, which refers to growth in some studies and to a panel of isolates in others) came out at 2.5 µM in the assay with C. albicans 15T; 2.5 µM with C. albicans 4T; 2.5 µM with C. albicans 53T; 2.5 µM in the assay on C. albicans ATCC 60193; 1.25 µM in the assay with C. tropicalis 86E; 40 µM in the assay with C. glabrata 70E. For the same compound, the MIC50 was 10 µM in the assay on C. krusei ATCC 14243; 10 µM in the assay with C. krusei 193T; 20 µM in the assay on C. parapsilosis 64E; 40 µM in the assay with C. parapsilosis 81E; over 80 µM in assay [1].
On to `CC(C)=CCNC(=N)NCCCCCCCCN1CCCCCCCCNC(=N)NC1=O` [Compound 15e, 1-[γ,γ-dimethylallyl]-3-[8-(4-imino-2-oxo-1,3,5-triazacyclotridec-1-yl)octyl]guanidine tri trifluoroacetate], for which the MIC fell in the range of 20 to 40 µM in the assay with C. albicans; 40 to 80 µM in the assay on C. glabrata 70E (70E, stated jointly with C. parapsilosis, read-out: activity toward C. glabrata (MIC)); 40 to 80 µM in the assay on C. parapsilosis. The MIC50 worked out at 20 µM in the assay with C. albicans 15T; 20 µM in the assay with C. albicans 4T; 20 µM in the assay with C. albicans 53T; 40 µM in the assay with C. albicans ATCC 60193; 20 µM in the assay with C. tropicalis 86E; 80 µM in the assay on C. glabrata 70E. The MIC50 was 10 µM in the assay on C. krusei ATCC 14243; 20 µM in the assay on C. krusei 193T; over 80 µM in the assay with C. parapsilosis 64E; 40 µM in the assay on C. parapsilosis 81E; over 80 µM in assay [1].

Values taken from patent US8685953B2, “Linear and cyclic guanidine derivatives, method of preparation and uses thereof” (Universita Degli Studi Di Siena, priority 2008, dated 2014).
